The source of these data is patent US20030119186A1, “Enzyme-mediated modification of fibrin for tissue engineering: fibrin formulations with peptides” (Eidgenossische Technische Hochschule Zurich, priority 1998, published 2003).

“And” between values parts separate entries of the source, which are not always exact repeats. Equal entries are not always repeated.

Assay [1] can be described thus: Elution from heparin affinity column (relative heparin binding affinity). Particulars: relative heparin binding affinity of bi-domain peptide. An excerpt: Table 3 Provides results of the relative heparin binding affinity and enhancement of three dimensional neurite outgrowth for several heparin binding peptides. There is a correlation between the binding strength for each peptide and the percent enhancement of neurite outgrowth.

The subject of assay [2] is day 8 chick dorsal root ganglia. Briefly: Neurite outgrowth from dorsal root ganglia embedded in three dimensional peptide-modified fibrin gels, normalized to unmodified fibrin. In kind it is cell-based. The settings on record: for Enhancement of Neurite Outgrowth (%): bi-domain peptide cross-linked into fibrin at 8 mol/mol fg without heparin, 48 hours, relative to unmodified fibrin; for correlation between peptide concentration and level of enhancement of neurite outgrowth / peptide concentration showing maximal enhancement of neurite outgrowth / concentration of incorporated peptide giving maximal effect on neurite outgrowth: single peptide cross-linked into fibrin, concentration series; for peptide concentration showing maximal enhancement of neurite outgrowth / concentration of incorporated peptide giving maximal effect on neurite outgrowth: growth at 24 and 48 hr. The method, then:
FIG. 1 Enhancement of neurite outgrowth with HAV (SEQ. I.D. NO. 6) modified fibrin gels. A concentration series of HAV (SEQ. I.D. NO. 6) cross-linked into fibrin was tested in triplicate with day 8 chick dorsal root ganglia. The level of growth at 24 and 48 hours was calculated and normalized to growth in unmodified fibrin. Mean and standard error of the mean are shown. Legend to FIG. 1: -[…]- 24 Hours, -⋄- 48 Hours.
FIG. 8 Heparin binding peptides derived from three separate proteins, NCAM (SEQ. I.D. NO. 7), platelet factor 4 and antithrombin III were cross-linked into fibrin at 8 mol/mol fg. The level of neurite outgrowth at 48 hours was normalized against growth in unmodified fibrin and is shown below. Additionally, controls of crosslinked peptide with heparin or just soluble peptide were tested. […] Mean and standard error of the mean are shown. Legend for FIG. 8: ? Peptide Grafted at 8 mol/mol Fg, □ Peptide Grafted at 8 mol/mol Fg with Soluble Heparin, ? Peptide Added in Soluble Phase.
Multiple peptide sequences from extracellular matrix proteins have been chosen. These proteins were chosen in part because of their reported ability to enhance neurite outgrowth (Yamada, 1991, Tashiro, et al., 1989). These proteins have been tested at various concentrations. To test these peptides, specific selected peptide sequences were cross-linked into a three dimensional fibrin matrix with a day 8 dorsal root ganglia embedded into the gels. The neurites were grown for 48 hr, and the migration rate of the neurites extending from the ganglia was quantified for each condition at both 24 and 48 hr. This growth was then normalized to the growth in unmodified fibrin. […] HAV (SEQ. I.D. NO. 6) achieved a maximal effect at 2 mol/mol fg while RGD (SEQ. I.D. NO. 2) achieved a maximal effect at 1.5 mol/mol fg of incorporated peptide.
In one example, the peptide was cross-linked into the gel alone and in the second example, it was incorporated in the presence of heparin. […] Therefore, the effects of interaction between the growing neurites and either a heparin binding domain or heparin itself could be determined. When the peptide was incorporated without heparin present, it was able to enhance the extension of neurites from day 8 chick dorsal root ganglia. Three bi-domain peptides, each with a different heparin binding domain, were tested and gave statistically better growth than unmodified fibrin (FIG. 8). The level of improvement ranged from 75% to 25%. This level of enhancement could be correlated to the binding affinity of the heparin binding domain that was incorporated (Table 3). When heparin was added at the beginning of the study, it was discovered that this abolished the effect, resulting in growth similar to that seen in unmodified fibrin.

Turning to LNQEQVSP K(βA)FAKLAARLYRKA [ATIII], in assay [1], the “Elution from Heparin Affinity Column (Mol NaCl)” value (“Elution” for short) was determined as 0.67 Mol NaCl. For the same substance, the “Enhancement of Neurite Outgrowth (%)” value in assay [2] is recorded as 73.1%.

As for “LNQEQVSP KHKGRDVILKKDVR (LNQEQVSPKHKGRDVILKKDVR; heparin binding sequence) [PF4]”, the “Elution” value in assay [1] stood at 0.34 Mol NaCl. Further, the “Enhancement of Neurite Outgrowth (%)” value in assay [2] is 20.2%.

IKVAV (heparin binding peptide): in assay [2], the “correlation between peptide concentration and level of enhancement of neurite outgrowth” value is “linear correlation”; the “peptide concentration showing maximal enhancement of neurite outgrowth” value is recorded as 8 mol peptide/mol fibrinogen.

For the substance HAV (heparin binding peptide), in assay [2], the “concentration of incorporated peptide giving maximal effect on neurite outgrowth” value is listed as 2 mol/mol fg.

For the substance RGD, the “concentration of incorporated peptide giving maximal effect on neurite outgrowth” value in assay [2] was 2 mol/mol fg and 1.5 mol/mol fg.

Turning to RNIAEIIKDI, in assay [2], the “correlation between peptide concentration and level of enhancement of neurite outgrowth” value is listed as “linear correlation”; the “peptide concentration showing maximal enhancement of neurite outgrowth” value was 8 mol peptide/mol fibrinogen.

On to YIGSR (heparin binding peptide), for which, in assay [2], the “correlation between peptide concentration and level of enhancement of neurite outgrowth” value was “linear correlation”; the “peptide concentration showing maximal enhancement of neurite outgrowth” value is 6 mol peptide/mol fibrinogen.

As to “LNQEQVSP YKKIIKKL (LNQEQVSPYKKIIKKL) [NCAM]”, in assay [1], the “Elution” value came out at 0.35 Mol NaCl. Besides, the “Enhancement of Neurite Outgrowth (%)” value in assay [2] amounted to 24.5%.
